Here are results for 20 compounds from US8735414B2 (priority 2009, dated 2014).

Bounds are passed on as bounds.

The subject of data set [1] is bicistronic HCV replicon (replicon RNA, GenBank Accession No. AJ242654). The experiment in a line: HCV Replicon Assay. As to conditions: Hepatitis C virus, 72 h, read-out: Replicon IC50. Type of data set: cell-based.

Usually melting point stands for the temperature, or range, at which the solid turns liquid. One may read the IC50 as the concentration that gives 50% inhibition. As to `C[C@H](NS(=O)(=O)c1ccc(-c2c(C#N)c3cc(F)ccc3n2C2CCCCC2)nc1)C1CC1` [compound 250, 6-(3-cyano-1-cyclohexyl-5-fluoro-1H-indol-2-yl)-N-[(1S)-1-cyclopropylethyl]pyridine-3-sulfonamide], the melting point was 161 to 163 °C. The IC50 in data set [1] was below 0.5 µM.
The matching figures for `N#Cc1c(-c2ccc(S(=O)(=O)NC(CF)CF)cn2)n(C2CCCC2)c2ccc(OC(F)(F)F)cc12` [compound 34, 6-[3-cyano-1-cyclopentyl-5-(trifluoromethoxy)-1H-indol-2-yl]-N-(1,3-difluoropropan-2-yl)pyridine-3-sulfonamide]: 159 to 160 °C and below 0.5 µM.
The like results for `Cc1ccc2c(C#N)c(-c3ncc(S(=O)(=O)N[C@@H](C)C(F)(F)F)cn3)n(C3CCC3)c2c1` [compound 325, 2-(3-cyano-1-cyclobutyl-6-methyl-1H-indol-2-yl)-N-[(2S)-1,1,1-trifluoropropan-2-yl]pyrimidine-5-sulfonamide] were, in that order, 242 to 243 °C and below 0.5 µM.
The matching figures for `CCc1cc(F)c2c(C(N)=O)c(-c3ccc(NS(=O)(=O)C(C)(C)C)nc3)n(-c3ccc(F)cc3)c2c1` [compound 1106, 2-{6-[(tert-butylsulfonyl)amino]pyridin-3-yl}-6-ethyl-4-fluoro-1-(4-fluorophenyl)-1H-indole-3-carboxamide]: 280 to 288 °C and below 0.5 µM.
Compound `C[C@H](NS(=O)(=O)c1ccc(-c2c(C#N)c3ccc(C(F)F)cc3n2C2CCC2)nc1)C(F)(F)F` [compound 363, 6-[3-cyano-1-cyclobutyl-6-(difluoromethyl)-1H-indol-2-yl]-N-[(2S)-1,1,1-trifluoropropan-2-yl]pyridine-3-sulfonamide] displayed a melting point of 198 to 207 °C. In data set [1], the IC50 was below 0.5 µM.
The like results for `Cc1cc2c(cc1F)c(C#N)c(-c1ccc(S(=O)(=O)N[C@@H](C)C(F)(F)F)cn1)n2-c1c[nH]nc1C` [compound 1030, 6-[3-cyano-5-fluoro-6-methyl-1-(3-methyl-1H-pyrazol-4-yl)-1H-indol-2-yl]-N-[(2S)-1,1,1-trifluoropropan-2-yl]pyridine-3-sulfonamide] were, in that order, 238.8 to 244 °C and 0.5 to 2 µM.
The matching figures for `Cc1ccc2c(C#N)c(-c3ccc(S(=O)(=O)NC4CC(F)(F)C4)cn3)n(C3CCC3)c2c1` [compound 245, 6-(3-cyano-1-cyclobutyl-6-methyl-1H-indol-2-yl)-N-(3,3-difluorocyclobutyl)pyridine-3-sulfonamide]: 165 to 166 °C and below 0.5 µM.
The like results for `C[C@@H](NS(=O)(=O)c1ccc(-c2c(C(N)=O)c3cc(F)c(C4CC4)cc3n2C2CCCC2)nc1)C(F)(F)F` [compound 829, 1-cyclopentyl-6-cyclopropyl-5-fluoro-2-(5-{[(2R)-1,1,1-trifluoropropan-2-yl]sulfamoyl}pyridin-2-yl)-1H-indole-3-carboxamide] were, in that order, 233 to 234 °C and below 0.5 µM.
For `N#Cc1c(-c2ccc(S(=O)(=O)NC(CF)CF)cn2)n(C2CCC2)c2ccc(Cl)cc12` [compound 30, 6-(5-chloro-3-cyano-1-cyclobutyl-1H-indol-2-yl)-N-(1,3-difluoropropan-2-yl)pyridine-3-sulfonamide], the melting point was in the range of 182 to 186 °C. In addition, the IC50 in data set [1] is below 0.5 µM.
Compound `C[C@@H](NS(=O)(=O)c1ccc(-c2c(C#N)c3cc(F)ccc3n2C2C=CCCC2)nc1)C(F)(F)F` (stereo partly drawn) [compound 412, 6-[3-cyano-1-(cyclohex-2-en-1-yl)-5-fluoro-1H-indol-2-yl]-N-[(2R)-1,1,1-trifluoropropan-2-yl]pyridine-3-sulfonamide] yielded a melting point of 187 to 188 °C. The IC50 in data set [1] is below 0.5 µM.
The matching figures for `C[C@H](NS(=O)(=O)c1ccc(-c2c(C#N)c3ccc(OC(F)F)cc3n2-c2ccccn2)nc1)C(F)(F)F` [compound 387, 6-[3-cyano-6-(difluoromethoxy)-1-(pyridin-2-yl)-1H-indol-2-yl]-N-[(2S)-1,1,1-trifluoropropan-2-yl]pyridine-3-sulfonamide]: 199 to 203 °C and below 0.5 µM.
Consider `Cc1ccc2c(C#N)c(-c3ncc(S(=O)(=O)NC(C)C)cn3)n(CC3CC3)c2c1` [compound 168, 2-[3-cyano-1-(cyclopropylmethyl)-6-methyl-1H-indol-2-yl]-N-(propan-2-yl)pyrimidine-5-sulfonamide], for which the melting point is 245 to 247 °C. The IC50 in data set [1] is below 0.5 µM.
The matching figures for `CC(C)NS(=O)(=O)c1cnc(-c2c(C#N)c3cc(Cl)ccc3n2C(C)C)nc1` [compound 120, 2-[5-chloro-3-cyano-1-(propan-2-yl)-1H-indol-2-yl]-N-(propan-2-yl)pyrimidine-5-sulfonamide]: 202 to 220 °C and below 0.5 µM.
Turning to `C[C@@H](NS(=O)(=O)c1ccc(-c2c(C#N)c3ccc(OC(F)F)cc3n2-c2ccc(F)cc2)nc1)C(F)(F)F` [compound 649, 6-[3-cyano-6-(difluoromethoxy)-1-(4-fluorophenyl)-1H-indol-2-yl]-N-[(2R)-1,1,1-trifluoropropan-2-yl]pyridine-3-sulfonamide], the melting point is 199 to 203 °C. In data set [1], the IC50 was below 0.5 µM.
The matching figures for `C[C@@H](NS(=O)(=O)c1ccc(-c2c(C#N)c3cc(F)ccc3n2C2CCCCC2)nc1)C(F)(F)F` [compound 261, 6-(3-cyano-1-cyclohexyl-5-fluoro-1H-indol-2-yl)-N-[(2R)-1,1,1-trifluoropropan-2-yl]pyridine-3-sulfonamide]: 208 to 210 °C and below 0.5 µM.
The matching figures for `Cc1ccc2c(C#N)c(-c3ccc(S(=O)(=O)NC(CF)CF)cn3)n(C3CCC3)c2c1F` [compound 422, 6-(3-cyano-1-cyclobutyl-7-fluoro-6-methyl-1H-indol-2-yl)-N-(1,3-difluoropropan-2-yl)pyridine-3-sulfonamide]: 186 to 201 °C and below 0.5 µM.
The like results for `Cc1ccc2c(c1)c(C#N)c(-c1ccc(S(=O)(=O)N[C@@H](C)C3CC3)cn1)n2C1CCC1` [compound 201, 6-(3-cyano-1-cyclobutyl-5-methyl-1H-indol-2-yl)-N-[(1S)-1-cyclopropylethyl]pyridine-3-sulfonamide] were, in that order, 173 to 178 °C and below 0.5 µM.
As to `Cc1ccc2cc(-c3ccc(S(=O)(=O)NC(CF)CF)cn3)n(C3CCC3)c2c1` [compound 511, 6-(1-cyclobutyl-6-methyl-1H-indol-2-yl)-N-(1,3-difluoropropan-2-yl)pyridine-3-sulfonamide], the melting point was 137 to 139 °C. Further, the IC50 in data set [1] was below 0.5 µM.
The matching figures for `C[C@H](NS(=O)(=O)c1ccc(-c2c(C#N)c3ccc(OC(F)F)cc3n2C2CCCCC2)nc1)C(F)(F)F` [compound 341, 6-[3-cyano-1-cyclohexyl-6-(difluoromethoxy)-1H-indol-2-yl]-N-[(2S)-1,1,1-trifluoropropan-2-yl]pyridine-3-sulfonamide]: 149 to 151 °C and below 0.5 µM.
The matching figures for `C[C@H](NS(=O)(=O)c1cnc(-c2c(C#N)c3ccc(Cl)cc3n2-c2ccccn2)nc1)C(F)(F)F` [compound 449]: 163 to 166 °C and below 0.5 µM.
